Data reported in patent publication US20260048051A1, “TREATMENT OF INFLAMMATORY BOWEL DISEASE” (Atomwise Inc., priority 2024, published 2026).
Read-outs that look alike come from different tables or passages of the source.

Test: Plasma and tissue distribution in SD rats
Type: in vivo
Settings: for Tissue/Plasma Ratio (AUCinf) / Kp: SD rat; for Kp: rat, oral, read-out: Tissue/Plasma Ratio (AUCinf); for Cmax / Tmax / half-life / AUC0-inf / AUC0-24 / AUC0-last: PO 10 mg/kg
Excerpt: The following Example describes the methods and data used to evaluate the tissue distribution of TYK2 inhibitors following the administration of either compound 1 or compound 2.
Thirty (30, 15/sex) SD rats supplied by Beijing Vital River Laboratory Animal Technology Co., Ltd. were used in this study. The animals were confirmed to be healthy before being assigned to the study. The room (s) was controlled and monitored for relative humidity (targeted mean range 40% to 70%) and temperature (targeted mean range 20° C. to 26° C.) with 15 or above air changes/hour. The room was on a 12-hour light/dark cycle except when interruptions were necessitated by study activities. Fresh drinking water (reverses osmosis) was available to all animals, ad libitum. Certified animal diet from certified vendor was available to all animals, ad libitum.
Animals were weighed prior to dose administration to calculate the actual dose volume. The body weights were in the range from 245.39 to 276.33 g for males and 182.29 to 215.69 g for females on the first dosing day. The animals in Groups 1 and 2 received a single oral gavage administration of test compound 1. Cage-side observations for the general health condition and appearance of the animal were performed before and after dosing and at each time point of sample collection. Unusual observations were recorded throughout the duration of the study.
The vehicle was 0.5% methyl cellulose (4000 cps) in water. The formulation was prepared according to the following steps. Group 1: 25.95 mg of compound 1 was weighed into a glass vial. 5000 μL of vehicle was added into the vial and stirred for 30 min at 1700 rpm to get a homogenous opaque suspension. 5000 μL of vehicle was added into the vial and stirred for 10 min at 1700 rpm to get a homogenous opaque suspension. 5000 μL+5000 μL+5000 μL+924 μL of vehicle was added into the vial and stirred for 10 min at 1700 rpm to get a homogenous opaque suspension. Group 2: 81.66 mg of compound 1 was weighed into a glass vial. 5000 μL of vehicle was added into the vial and stirred for 30 min at 1700 rpm to get a homogenous opaque suspension. 5000 μL of vehicle was added into the vial and stirred for 10 min at 1700 rpm to get a homogenous opaque suspension. 10 mL+10 mL+10 mL+20 mL+10 mL+10 mL+1580 μL of vehicle was added into the vial and stirred for 10 min at 1700 rpm to get a homogenous opaque suspension.
Blood (about 0.2 mL) was collected at each time point via jugular vein puncture from each study animal. The actual time for each sample collection was recorded. The acceptable deviations on sampling time were ±1 min for the time points pre-dose through 1 hour post-dose, and +5% of the nominal time for time points after 1 hour post-dose.
All blood samples were transferred into commercial tubes containing K2-EDTA. After blood was collected, the samples were placed on wet ice and processed for plasma within 60 minutes of collection by centrifugation at approximately 4° C., 3200×g for 10 minutes, and then quickly frozen over dry ice and kept at −60° C. or lower until LC-MS/MS analysis.
Following terminal blood sample collection, animals were conducted CO2 euthanasia, the chest and abdominal cavities were opened carefully lengthwise using scissors to expose the internal organs in preparation of tissue perfusion. A needle was used to puncture a small hole into the left ventricle of the heart, and then clamped with a hemostat. […] Fluid (cold 1×PBS) was infused until the liver pales (typically 2-3 minutes). Following perfusion, 14 kinds of tissues (spleen, bone marrow, adipose, brain, heart, kidney, liver, lung, skin, small intestine, large intestine, eye, gonads, and bladder) were collected from each animal, respectively.
Each tissue was weighed and homogenized on wet ice using homogenizing buffer (MeOH/15 mM PBS 1:2) at the ratio of 1:9 (1 g tissue with 9 mL buffer). The tissue homogenate was kept at −60° C. or lower until LC-MS/MS analysis. […]

[1] = Sprague-Dawley, epididymis and testis, male SD rat, Epididymis & Testis
[2] = Sprague-Dawley, male SD rat, Eyeball (left and right)
[3] = Sprague-Dawley, male SD rat, Fat
[4] = Sprague-Dawley, male SD rat, Heart
[5] = Sprague-Dawley, male SD rat, Kidney (left and right)
[6] = Sprague-Dawley, male SD rat, Large intestine
[7] = Sprague-Dawley, plasma, female SD rat
[8] = Sprague-Dawley, plasma, male SD rat
[9] = female SD rat, Eyeball (left and right)
[10] = female SD rat, Kidney (left and right)

For `C[C@@H](c1ccc(Nc2cc(Nc3ncccc3S(C)(=O)=O)ncn2)nc1)N1CC2(COC2)C1` [Compound 1, (S)—N^4-(5-(1-(2-oxa-6-azaspiro[3.3]heptan-6-yl)ethyl)pyridin-2-yl)-N^6-(3-(methylsulfonyl)pyridin-2-yl)pyrimidine-4,6-diamine], the “Tissue/Plasma Ratio (AUCinf)” value (Kidney) was 9.1, the “Tissue/Plasma Ratio (AUCinf)” value (Large Intestine) was 13 and the Kp (Sprague-Dawley (SD), bone marrow / plasma, Bone Marrow) was 4.3. It also gave a Cmax [1] of 350 ng/g, a Tmax [1] of 8 h and a Kp (Sprague-Dawley, adipose, Adipose) of 0.59. For the same compound, the Kp (Sprague-Dawley, bladder, Bladder) was 5, the Kp (Sprague-Dawley, eye, Eye) was 0.8 and the Kp (Sprague-Dawley, kidney, Kidney) was ~9. For the same compound, the Kp (Sprague-Dawley, large intestine, Large Intestine) was ~13, the Kp (Sprague-Dawley, liver, Liver) was 7.6 and the Kp (Sprague-Dawley, lung, Lung) was 2. For the same compound, the Kp (Sprague-Dawley, skin, Skin) was 3.2, the Kp (Sprague-Dawley, small intestine, Small Intestine) was 21 and the Kp (Sprague-Dawley, spleen, Spleen) was 5.4. For the same compound, the Cmax [2] was 327 ng/g, the Tmax [2] was 0.5 h and the half-life [2] was 4.03 h. It also gave a Cmax [3] of 464 ng/g, a Tmax [3] of 0.5 h and a half-life [3] of 3.08 h. It also gave a Cmax [4] of 1260 ng/g, a Tmax [4] of 0.5 h and a half-life [4] of 2.31 h. It also gave a Cmax [5] of 6140 ng/g, a Tmax [5] of 0.5 h and a half-life [5] of 3.79 h. It also gave a Cmax [6] of 5180 ng/g, a Tmax [6] of 8 h and a Cmax [7] of 1180 ng/mL. For the same compound, the Tmax [7] was 0.5 h, the half-life [7] was 2.39 h and the AUC0-inf (Sprague-Dawley, plasma, female SD rat, read-out: AUC0-inf) was 3610 ng·h/mL. It also gave a Cmax [8] of 1370 ng/mL, a Tmax [8] of 0.667 h and a half-life [8] of 2.75 h. It also gave an AUC0-inf (Sprague-Dawley, plasma, male SD rat, read-out: AUC0-inf) of 2920 ng·h/mL, an AUC0-24 (female SD rat, Bladder) of 17454 ng·h/g and an AUC0-inf (female SD rat, Bladder) of 17693 ng·h/g. For the same compound, the AUC0-last (female SD rat, Bladder) was 17454 ng·h/g, the Cmax (female SD rat, Bladder) was 4150 ng/g and the Tmax (female SD rat, Bladder) was 2 h. The half-life (female SD rat, Bladder) was 3.61 h, the AUC0-24 (female SD rat, Bone Marrow) was 17781 ng·h/g and the AUC0-inf (female SD rat, Bone Marrow) was 17791 ng·h/g. It also gave an AUC0-last (female SD rat, Bone Marrow) of 15823 ng·h/g, a Cmax (female SD rat, Bone Marrow) of 3840 ng/g and a Tmax (female SD rat, Bone Marrow) of 0.5 h. It also gave a half-life (female SD rat, Bone Marrow) of 2.52 h, an AUC0-24 [9] of 3253 ng·h/g and an AUC0-inf [9] of 3348 ng·h/g. For the same compound, the AUC0-last [9] was 3253 ng·h/g, the Cmax [9] was 449 ng/g and the Tmax [9] was 2 h. The half-life [9] was 4.51 h, the AUC0-24 (female SD rat, Fat) was 1725 ng·h/g and the AUC0-last (female SD rat, Fat) was 1725 ng·h/g. It also gave a Cmax (female SD rat, Fat) of 417 ng/g, a Tmax (female SD rat, Fat) of 2 h and an AUC0-24 (female SD rat, Heart) of 5608 ng·h/g. It also gave an AUC0-inf (female SD rat, Heart) of 5627 ng·h/g, an AUC0-last (female SD rat, Heart) of 4754 ng·h/g and a Cmax (female SD rat, Heart) of 1280 ng/g. It also gave a Tmax (female SD rat, Heart) of 0.5 h, a half-life (female SD rat, Heart) of 2.88 h and an AUC0-24 [10] of 36323 ng·h/g. It also gave an AUC0-inf [10] of 36373 ng·h/g, an AUC0-last [10] of 36323 ng·h/g and a Cmax [10] of 7800 ng/g. The Tmax [10] was 0.5 h, the half-life [10] was 2.46 h and the AUC0-24 (female SD rat, Large intestine) was 39634 ng·h/g. It also gave an AUC0-last (female SD rat, Large intestine) of 39634 ng·h/g, a Cmax (female SD rat, Large intestine) of 4670 ng/g and a Tmax (female SD rat, Large intestine) of 8 h. For the same compound, the AUC0-24 (female SD rat, Liver) was 29588 ng·h/g, the AUC0-inf (female SD rat, Liver) was 29655 ng·h/g and the AUC0-last (female SD rat, Liver) was 29588 ng·h/g. It also gave a Cmax (female SD rat, Liver) of 6310 ng/g, a Tmax (female SD rat, Liver) of 0.5 h and a half-life (female SD rat, Liver) of 2.67 h. The AUC0-24 (female SD rat, Lung) was 8773 ng·h/g, the AUC0-last (female SD rat, Lung) was 8773 ng·h/g and the Cmax (female SD rat, Lung) was 2180 ng/g. The Tmax (female SD rat, Lung) was 2 h, the AUC0-24 (female SD rat, Ovary & Uterus) was 5024 ng·h/g and the AUC0-inf (female SD rat, Ovary & Uterus) was 5028 ng·h/g. The AUC0-last (female SD rat, Ovary & Uterus) was 4408 ng·h/g, the AUC0-24 (female SD rat, Skin) was 3803 ng·h/g and the AUC0-last (female SD rat, Skin) was 3803 ng·h/g. The Cmax (female SD rat, Skin) was 893 ng/g, the Tmax (female SD rat, Skin) was 2 h and the AUC0-24 (female SD rat, Small intestine) was 59880 ng·h/g. The AUC0-inf (female SD rat, Small intestine) was 59932 ng·h/g, the AUC0-last (female SD rat, Small intestine) was 59880 ng·h/g and the Cmax (female SD rat, Small intestine) was 12300 ng/g. It also gave a Tmax (female SD rat, Small intestine) of 0.5 h and a half-life (female SD rat, Small intestine) of 2.3 h.
